Test [1] deals with LPS-induced lung neutrophil influx. As to the kind of experiment: LPS-induced lung neutrophil influx in male Wistar rats. Format: in vivo, rat. Particulars: oral, data not shown. The source says:
Compared with other animal species used to study emesis induction by PDE4 inhibitors, like ferrets, dogs, minipigs, or monkeys, Suncus murinus allows the testing of a sufficient number of animals to provide a high statistical power. […] Male Suncus murinus (weight 50–55 g) from Boehringer Ingelheim (Biberach an der Riss, Germany) or male Wistar rats (200–250 g, Charles River), eight animals per group, were used. […] For this purpose, animals in the positive control and treatment groups were put into a circular Plexiglas chamber with 16 pie-like compartments for one animal each, and were consecutively exposed to nebulized LPS for 30 min. The LPS solution used for nebulization contained 1 mg/mL LPS in phosphate-buffered saline (PBS). Nebulization was performed with the commercially available PARI Master® nebulizer with a PARI Master® LL adapter (Pari GmbH, Starnberg, Germany). 4 h after LPS exposure, the animals were anesthetized and euthanized by cervical dislocation. After sacrifice, the trachea was cannulated and bronchoalveolar lavage was performed by instilling and re-aspirating two-times 1 mL (Suncus murinus) or 5 mL (rat) lavage buffer (PBS +2% bovine serum albumin). BALF volumes were recorded manually. Determination of neutrophil numbers in BALF was performed using a blood hemacytometer (Sysmex XT-1800i, Kobe, Japan).

The test system of test [2] is LPS-stimulated TNF-α release. As to the kind of experiment: LPS-induced TNF-α release in rat whole blood. The format is cell-based. Particulars: LPS 10 µg/mL. Here is the method:
Heparinized whole blood was collected from the Aorta abdominalis of WI (Han) male rats (Charles River Laboratories, Sulzfeld, Germany) and from healthy male human donors, and treated with 1 µL (rat) or 2.5 µL (human) of BI 1015550 or vehicle [final DMSO concentration 0.5% (v/v)]. Final assay volumes were 200 μL (rat) and 500 μL (human). After incubation for 30 min at 37°C, 95% humidity, and 5% CO2, cultures were treated with LPS [final concentration 10 µg/mL (rat), 0.1 µg/mL (human)] or saline. After 7 h, plates were centrifuged at 3.200 × g at 4°C for 10 min and plasma was used for cytokine measurement. Meso Scale Discovery (MSD) (Rockville, MD, United States) rat and human pro-inflammatory panels were used for detection of TNF-α and IL-6 in rat plasma [diluted 1:2 (v/v)]) and human plasma [negative control undiluted, other samples diluted 1:200 (v/v)] according to the manufacturer’s instructions.

For test [3], the system named is Col3A1 mRNA expression. As to the kind of experiment: TGF-β-induced Col3A1 mRNA expression in IPF lung fibroblasts (Taqman). The format is cell-based, human. Here is the method:
Fibroblasts from donors with IPF (IPF-LF) (Asterand, Detroit, MI, United States) were grown in fibroblast basal medium (CC-3131, Lonza Walkersville, Inc., Walkersville, MD, United States) supplemented with FGM-2 SingleQuot Kit Supplements and Growth Factors (CC-4126, Lonza). Cells were grown in a humidified incubator at 37°C and 5% CO2. All assays were performed at passage 7 or 8. For assay set-up, cells were seeded in fibroblast growth medium plus supplements in assay-relevant densities. For TGF-β-stimulated assays, cells were seeded at 4,500 cells per well in 96-well plates. Proliferation assays were performed in 96-well plates at an initial seeding cell density on day 0 of 2,000 cells per well. After 24-h, the cell culture medium was changed to starvation medium (fibroblast basal medium without supplements). […]
For determination of Col1A1, Col3A1, and FN mRNA expression, IPF-LF cells were stimulated with TGF-β (4 ng/mL) for 48 h. […] Quantitative real-time polymerase chain reactions were set up using the TaqMan™ Fast Advanced Master Mix (Applied Biosystems, Carlsbad, CA, United States) and species-specific gene expression assays: Col1A1 #Hs00164004_m1 FAM, Col3A1 #Hs0094309_m1 FAM, FN #Hs01549976_m1 FAM, 18S #4310893E. […] Fold-change of gene expression was calculated by the Viia7 software (regulation based upon housekeeper).
For orientation: Quantitative PCR measures a nucleic acid by following its amplification.

In test [4] the test system is phytohemagglutinin P-induced IL-2 release. As to the kind of experiment: Phytohemagglutinin P-induced IL-2 release in human PBMCs. The following applies: 10 µg/mL PHA-P for 20 h. Format: cell-based. As for the experimental part: Blood was donated by internal donors at the Center for Occupational Health at Boehringer Ingelheim in Biberach an der Riss, Germany; the donors provided signed informed consent that allows use for scientific purposes. All research was performed in accordance with the principles stated in the Declaration of Helsinki. Ethical approval was provided by the Federal State Medical Association of Baden-Württemberg, reference no. F-2016–121. For preparation of peripheral blood mononuclear cells (PBMCs), 200 mL freshly drawn human blood from healthy donors was mixed with 50 mL acid-citrate-dextrose solution (38 mmol/L citric acid, 75 mmol/L tri-sodium citrate and 121 mmol/L glucose) and 50 mL Hanks buffered saline solution (Thermo Fisher Scientific, Carlsbad, CA, United States), overlaid on Ficoll and centrifuged for 30 min at 300 x g. PBMCs were diluted in RPMI-1640 medium (Thermo Fisher Scientific) containing 6% (v/v) autologous plasma to a concentration of 5 × 10^6 cells/mL. […] Supernatants were taken and cytokines measured by enzyme-linked immunosorbent assay (ELISA; Becton Dickinson, Franklin Lakes, NJ, United States).

For `[O-][S+]1CCc2nc(N3CCC(c4ncc(Cl)cn4)CC3)nc(NC3(CO)CCC3)c21` (stereo not drawn) [BI 1015550], the “ED50 LPS-induced lung neutrophil influx” value in test [1] was 0.1 mg/kg. In addition, in test [2], the “Extent of inhibition of TNF-α release” value was “completely inhibited”. Moreover, the IC50 in test [2] is 91 nM; in test [3] (IPF-LF, TGF-β 4 ng/mL, 48 h, read-out: IC50 TGF-β-induced Col3 mRNA expression), 213 nM; in test [4], 9 nM. For the same compound, the “Combination effect in inhibiting Col3 mRNA expression” value in test [3] (combination with nintedanib at 100 nmol/L) was “additive effects”.

By IC50 is commonly meant the concentration at which inhibition is half-maximal.

Values taken from PMC9065678, “BI 1015550 is a PDE4B Inhibitor and a Clinical Drug Candidate for the Oral Treatment of Idiopathic Pulmonary Fibrosis” (Frontiers in Pharmacology, 2022).
